From patent US12162840B2, “Herbicidal compositions” (SYNGENTA PARTICIPATIONS AG, priority 2018, dated 2024)

Key:
Assay type in all cases: in vivo
[1] = test system: warm season plant species; experiment: B2 Post-emergence efficacy Test 2, warm season plant species; conditions: 15 days after application, 0-100 scale, 0=no damage, 100=total kill; for Herbicidal activity, ABUTH: Abutilon theophrasti; for Herbicidal activity, AMARE: Amaranthus retroflexus; for Herbicidal activity, BIDPI: Bidens pilosa; for Herbicidal activity, BRAPL: Brachiaria plantaginea; for Herbicidal activity, DIGSA: Digitaria sanguinalis; for Herbicidal activity, ECHCG: Echinochloa crus galli; for Herbicidal activity, ELEIN: Eleisine indica; for Herbicidal activity, EPHHL: Euphorbia hetrophylla; for Herbicidal activity, GLXMA: Glycine max; for Herbicidal activity, IPOHE: Ipomoea hederacea; for Herbicidal activity, ORYSA: Orysa sativa; for Herbicidal activity, PANMI: Panicum miliaceum; for Herbicidal activity, SETFA: Setaria faberi; for Herbicidal activity, SIDSP: Sida spinosa; for Herbicidal activity, SORVU: Sorghum bicolour; for Herbicidal activity, XANST: Xanthium strumarium; for Herbicidal activity, ZEAMX: Zea mays
Protocol: Seeds of a variety of test species (see Table B1) were sown in standard soil in pots. After cultivation for 12 days (post-emergence) under controlled conditions in a glasshouse (at 24/18° C. or 20/16° C., at day/night; 16 hours light; 65% humidity), the plants were sprayed with an aqueous spray solution derived from the formulation of the technical active ingredient dissolved in IF50 (see Table B2 for composition) and adjuvant (Genapol XO80) was added to the spray solution at a rate of 0.2% v/v. [table] [table] After application, the test plants were grown in a glasshouse under controlled conditions (as above) and watered twice daily. Herbicidal activity was evaluated 15 days after application on a 0-100 scale. The results, where 0=no damage to test plant and 100=total kill of test plant are shown below in Tables 6 to 9.

Setaria faberi (SETFA) = experiment: B1 Post-emergence efficacy Test 1; conditions: post-emergence application, 1000 g/ha, evaluated after 13 days
Protocol: (§1) Seeds of a variety of test species are sown in standard soil in pots:—Solanum nigrum (SOLNI), Amaranthus retoflexus (AMARE), Setaria faberi (SETFA), Alopecurus myosuroides (ALOMY), Echinochloa crus-galli (ECHCG), Ipomoea hederacea (IPOHE), Lolium perenne (LOLPE). After 8 days cultivation (post-emergence) under controlled conditions in a glasshouse (at 24/16° C., day/night; 14 hours light; 65% humidity), the plants are sprayed with an aqueous spray solution derived from the formulation of the technical active ingredient in acetone/water (50:50) solution containing 0.5% Tween 20 (polyoxyethylene sorbitan monolaurate, CAS RN 9005-64-5). Compounds are applied at 1000 g/ha. The test plants are then grown in a glasshouse under controlled conditions in a glasshouse (at 24/16° C., day/night; 14 hours light; 65% humidity) and watered twice daily. After 13 days, the test is evaluated for the percentage damage caused to the plant. The biological activities are assessed on a five point scale (5=80-100%; 4=60-79%; 3=40-59%; 2=20-39%; 1=0-19%). A blank value in the table is indicative that the compound was not tested on that species.

Solanum nigrum (SOLNI) = experiment: B1 Post-emergence efficacy Test 1; conditions: post-emergence application, 1000 g/ha, evaluated after 13 days
Protocol: as §1

[2] = test system: Echinochloa crus-galli (ECHCG); experiment: B1 Post-emergence efficacy Test 1; conditions: post-emergence application, 1000 g/ha, evaluated after 13 days
Protocol: as §1

[3] = test system: Amaranthus retoflexus (AMARE); experiment: B1 Post-emergence efficacy Test 1; conditions: post-emergence application, 1000 g/ha, evaluated after 13 days
Protocol: as §1

[4] = test system: Ipomoea hederacea (IPOHE); experiment: B1 Post-emergence efficacy Test 1; conditions: post-emergence application, 1000 g/ha, evaluated after 13 days
Protocol: as §1

Lolium perenne (LOLPE) = experiment: B1 Post-emergence efficacy Test 1; conditions: post-emergence application, 1000 g/ha, evaluated after 13 days
Protocol: as §1

Question: What does the source list for `Cc1nn(C)c(=O)c(-c2c(F)ccc(Cl)c2CCc2ccc(F)cc2)c1O` [Compound 1.048]?
Answer: Herbicidal activity, ABUTH ([1]; 15 g/Ha): 60; Herbicidal activity, ABUTH ([1]; 30 g/Ha): 80; Herbicidal activity, ABUTH ([1]; 60 g/Ha): 90; Herbicidal activity, ABUTH ([1]; 125 g/Ha): 90; Herbicidal activity, ABUTH ([1]; 250 g/Ha): 90; Herbicidal activity, ABUTH ([1]; 500 g/Ha): 100; Herbicidal activity, AMARE ([1]; 15 g/Ha): 60; Herbicidal activity, AMARE ([1]; 30 g/Ha): 80; Herbicidal activity, AMARE ([1]; 60 g/Ha): 90; Herbicidal activity, AMARE ([1]; 125 g/Ha): 90; Herbicidal activity, AMARE ([1]; 250 g/Ha): 100; Herbicidal activity, AMARE ([1]; 500 g/Ha): 100; Herbicidal activity, BIDPI ([1]; 15 g/Ha): 70; Herbicidal activity, BIDPI ([1]; 30 g/Ha): 70; Herbicidal activity, BIDPI ([1]; 60 g/Ha): 70; Herbicidal activity, BIDPI ([1]; 125 g/Ha): 70; Herbicidal activity, BIDPI ([1]; 250 g/Ha): 100; Herbicidal activity, BIDPI ([1]; 500 g/Ha): 100; Herbicidal activity, BRAPL ([1]; 15 g/Ha): 20; Herbicidal activity, BRAPL ([1]; 30 g/Ha): 60; Herbicidal activity, BRAPL ([1]; 60 g/Ha): 80; Herbicidal activity, BRAPL ([1]; 125 g/Ha): 80; Herbicidal activity, BRAPL ([1]; 250 g/Ha): 90; Herbicidal activity, BRAPL ([1]; 500 g/Ha): 100; Herbicidal activity, DIGSA ([1]; 15 g/Ha): 0; Herbicidal activity, DIGSA ([1]; 30 g/Ha): 10; Herbicidal activity, DIGSA ([1]; 60 g/Ha): 20; Herbicidal activity, DIGSA ([1]; 125 g/Ha): 20; Herbicidal activity, DIGSA ([1]; 250 g/Ha): 50; Herbicidal activity, DIGSA ([1]; 500 g/Ha): 70; Herbicidal activity, ECHCG ([1]; 15 g/Ha): 60; Herbicidal activity, ECHCG ([1]; 30 g/Ha): 80; Herbicidal activity, ECHCG ([1]; 60 g/Ha): 80; Herbicidal activity, ECHCG ([1]; 125 g/Ha): 90; Herbicidal activity, ECHCG ([1]; 250 g/Ha): 90; Herbicidal activity, ECHCG ([1]; 500 g/Ha): 100; Herbicidal activity, ELEIN ([1]; 15 g/Ha): 0; Herbicidal activity, ELEIN ([1]; 30 g/Ha): 50; Herbicidal activity, ELEIN ([1]; 60 g/Ha): 60; Herbicidal activity, ELEIN ([1]; 125 g/Ha): 60; Herbicidal activity, ELEIN ([1]; 250 g/Ha): 80; Herbicidal activity, ELEIN ([1]; 500 g/Ha): 80; Herbicidal activity, EPHHL ([1]; 15 g/Ha): 50; Herbicidal activity, EPHHL ([1]; 30 g/Ha): 70; Herbicidal activity, EPHHL ([1]; 60 g/Ha): 90; Herbicidal activity, EPHHL ([1]; 125 g/Ha): 90; Herbicidal activity, EPHHL ([1]; 250 g/Ha): 100; Herbicidal activity, EPHHL ([1]; 500 g/Ha): 100; Herbicidal activity, GLXMA ([1]; 15 g/Ha): 70; Herbicidal activity, GLXMA ([1]; 30 g/Ha): 80; Herbicidal activity, GLXMA ([1]; 60 g/Ha): 90; Herbicidal activity, GLXMA ([1]; 125 g/Ha): 90; Herbicidal activity, GLXMA ([1]; 250 g/Ha): 90; Herbicidal activity, GLXMA ([1]; 500 g/Ha): 100; Herbicidal activity, IPOHE ([1]; 15 g/Ha): 70; Herbicidal activity, IPOHE ([1]; 30 g/Ha): 80; Herbicidal activity, IPOHE ([1]; 60 g/Ha): 100; Herbicidal activity, IPOHE ([1]; 125 g/Ha): 100; Herbicidal activity, IPOHE ([1]; 250 g/Ha): 100; Herbicidal activity, IPOHE ([1]; 500 g/Ha): 100; Herbicidal activity, ORYSA ([1]; 15 g/Ha): 0; Herbicidal activity, ORYSA ([1]; 30 g/Ha): 0; Herbicidal activity, ORYSA ([1]; 60 g/Ha): 0; Herbicidal activity, ORYSA ([1]; 125 g/Ha): 0; Herbicidal activity, ORYSA ([1]; 250 g/Ha): 10; Herbicidal activity, ORYSA ([1]; 500 g/Ha): 30; Herbicidal activity, PANMI ([1]; 15 g/Ha): 0; Herbicidal activity, PANMI ([1]; 30 g/Ha): 20; Herbicidal activity, PANMI ([1]; 60 g/Ha): 30; Herbicidal activity, PANMI ([1]; 125 g/Ha): 80; Herbicidal activity, PANMI ([1]; 250 g/Ha): 100; Herbicidal activity, PANMI ([1]; 500 g/Ha): 100; Herbicidal activity, SETFA ([1]; 15 g/Ha): 0; Herbicidal activity, SETFA ([1]; 30 g/Ha): 40; Herbicidal activity, SETFA ([1]; 60 g/Ha): 40; Herbicidal activity, SETFA ([1]; 125 g/Ha): 70; Herbicidal activity, SETFA ([1]; 250 g/Ha): 80; Herbicidal activity, SETFA ([1]; 500 g/Ha): 100; Herbicidal activity, SIDSP ([1]; 15 g/Ha): 80; Herbicidal activity, SIDSP ([1]; 30 g/Ha): 80; Herbicidal activity, SIDSP ([1]; 60 g/Ha): 80; Herbicidal activity, SIDSP ([1]; 125 g/Ha): 90; Herbicidal activity, SIDSP ([1]; 250 g/Ha): 90; Herbicidal activity, SIDSP ([1]; 500 g/Ha): 90; Herbicidal activity, SORVU ([1]; 15 g/Ha): 0; Herbicidal activity, SORVU ([1]; 30 g/Ha): 30; Herbicidal activity, SORVU ([1]; 60 g/Ha): 70; Herbicidal activity, SORVU ([1]; 125 g/Ha): 70; Herbicidal activity, SORVU ([1]; 250 g/Ha): 80; Herbicidal activity, SORVU ([1]; 500 g/Ha): 90; Herbicidal activity, XANST ([1]; 60 g/Ha): 90; Herbicidal activity, XANST ([1]; 125 g/Ha): 90; Herbicidal activity, XANST ([1]; 250 g/Ha): 90; Herbicidal activity, XANST ([1]; 500 g/Ha): 100; Herbicidal activity, ZEAMX ([1]; 15 g/Ha): 0; Herbicidal activity, ZEAMX ([1]; 30 g/Ha): 10; Herbicidal activity, ZEAMX ([1]; 60 g/Ha): 50; Herbicidal activity, ZEAMX ([1]; 125 g/Ha): 50; Herbicidal activity, ZEAMX ([1]; 250 g/Ha): 70; Herbicidal activity, ZEAMX ([1]; 500 g/Ha): 100; percentage damage caused to the plant, five point scale, SETFA (Setaria faberi (SETFA)): 5 (5=80-100%); percentage damage caused to the plant, five point scale, SOLNI (Solanum nigrum (SOLNI)): 5 (5=80-100%); percentage damage caused to the plant, five point scale, ECHCG [2]: 5 (5=80-100%); percentage damage caused to the plant, five point scale, AMARE [3]: 5 (5=80-100%); percentage damage caused to the plant, five point scale, IPOHE [4]: 5 (5=80-100%); percentage damage caused to the plant, five point scale, LOLPE (Lolium perenne (LOLPE)): 5 (5=80-100%)
